Columns and labels:
Test in all cases: relative viability (nuclei count vs DMSO), 5 days (fraction); higher = more cells survive
LK-2 = tested on: LK-2
Summary of the method: (§1)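 The day after seeding in 1536-well plates, lung cancer cell lines were treated by pin tool with a single drug, or with a fixed anchor-drug dose together with five library-drug doses (not always all listed) in √10 steps. After 5 days, a combined fix-and-stain solution (final 0.05% Triton X-100, 1% formaldehyde, 1 ug/ml Hoechst) was added. Nuclei counted on 4× images gave relative viability as treated counts over vehicle counts, reported as the median of duplicate plates.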

NCI-H1666 = tested on: NCI-H1666
Summary of the method: as §1

ABC-1 = tested on: ABC-1
Summary of the method: as §1

NCI-H2009 = tested on: NCI-H2009
Summary of the method: as §1

BEN = tested on: BEN
Summary of the method: as §1

NCI-H441 = tested on: NCI-H441
Summary of the method: as §1

LOU-NH91 = tested on: LOU-NH91
Summary of the method: as §1

HARA = tested on: HARA
Summary of the method: as §1

PC-14 = tested on: PC-14
Summary of the method: as §1

CAL-12T = tested on: CAL-12T
Summary of the method: as §1

201T = tested on: 201T
Summary of the method: as §1

HCC-366 = tested on: HCC-366
Summary of the method: as §1

NCI-H460 = tested on: NCI-H460
Summary of the method: as §1

NCI-H727 = tested on: NCI-H727
Summary of the method: as §1

EKVX = tested on: EKVX
Summary of the method: as §1

SW 900 = tested on: SW 900
Summary of the method: as §1

NCI-H3122 = tested on: NCI-H3122
Summary of the method: as §1

COR-L 105 = tested on: COR-L 105
Summary of the method: as §1

NCI-H661 = tested on: NCI-H661
Summary of the method: as §1

NCI-H1650 = tested on: NCI-H1650
Summary of the method: as §1

NCI-H1437 = tested on: NCI-H1437
Summary of the method: as §1

NCI-H2170 = tested on: NCI-H2170
Summary of the method: as §1

For `CCN(CC)CCCCNc1ncc2cc(-c3cc(OC)cc(OC)c3)c(NC(=O)NC(C)(C)C)nc2n1` + O=C(c1cc(Cc2n[nH]c(=O)c3ccccc23)ccc1F)N1CCN(C(=O)C2CC2)CC1 [Olaparib] (partner 8 µM), the relative viability (LK-2; first compound 0.01 µM) was 0.634, the relative viability (LK-2; first compound 0.03162 µM) was 0.547 and the relative viability (LK-2; first compound 0.1 µM) was 0.714. The relative viability (LK-2; first compound 0.3162 µM) was 0.457, the relative viability (LK-2; first compound 1 µM) was 0.226 and the relative viability (NCI-H1666; first compound 0.01 µM) was 0.812. It also gave a relative viability (NCI-H1666; first compound 0.03162 µM) of 0.708, a relative viability (NCI-H1666; first compound 0.1 µM) of 0.686 and a relative viability (NCI-H1666; first compound 0.3162 µM) of 0.748. For the same compound, the relative viability (NCI-H1666; first compound 1 µM) was 0.719, the relative viability (ABC-1; first compound 0.03162 µM) was 0.754 and the relative viability (ABC-1; first compound 0.1 µM) was 1.04. The relative viability (ABC-1; first compound 0.3162 µM) was 0.93, the relative viability (ABC-1; first compound 1 µM) was 1.01 and the relative viability (NCI-H2009; first compound 0.01 µM) was 0.828. The relative viability (NCI-H2009; first compound 0.03162 µM) was 0.696, the relative viability (NCI-H2009; first compound 0.1 µM) was 0.699 and the relative viability (NCI-H2009; first compound 0.3162 µM) was 0.75. It also gave a relative viability (NCI-H2009; first compound 1 µM) of 0.7, a relative viability (BEN; first compound 0.01 µM) of 1.18 and a relative viability (BEN; first compound 0.03162 µM) of 0.97. For the same compound, the relative viability (BEN; first compound 0.1 µM) was 1.01, the relative viability (BEN; first compound 0.3162 µM) was 1.17 and the relative viability (BEN; first compound 1 µM) was 1.01. For the same compound, the relative viability (NCI-H441; first compound 0.01 µM) was 0.601, the relative viability (NCI-H441; first compound 0.03162 µM) was 0.556 and the relative viability (NCI-H441; first compound 0.1 µM) was 0.531. The relative viability (NCI-H441; first compound 0.3162 µM) was 0.715, the relative viability (NCI-H441; first compound 1 µM) was 0.688 and the relative viability (LOU-NH91; first compound 0.01 µM) was 0.895. For the same compound, the relative viability (LOU-NH91; first compound 0.03162 µM) was 0.9, the relative viability (LOU-NH91; first compound 0.1 µM) was 0.954 and the relative viability (LOU-NH91; first compound 0.3162 µM) was 0.952. The relative viability (LOU-NH91; first compound 1 µM) was 0.884, the relative viability (HARA; first compound 0.01 µM) was 0.697 and the relative viability (HARA; first compound 0.03162 µM) was 0.62. It also gave a relative viability (HARA; first compound 0.1 µM) of 0.561, a relative viability (HARA; first compound 0.3162 µM) of 0.811 and a relative viability (HARA; first compound 1 µM) of 0.443. The relative viability (PC-14; first compound 0.01 µM) was 0.318, the relative viability (PC-14; first compound 0.03162 µM) was 0.341 and the relative viability (PC-14; first compound 0.1 µM) was 0.292. The relative viability (PC-14; first compound 0.3162 µM) was 0.278, the relative viability (PC-14; first compound 1 µM) was 0.236 and the relative viability (CAL-12T; first compound 0.01 µM) was 0.678. For the same compound, the relative viability (CAL-12T; first compound 0.03162 µM) was 0.78, the relative viability (CAL-12T; first compound 0.1 µM) was 0.829 and the relative viability (CAL-12T; first compound 0.3162 µM) was 0.845. The relative viability (CAL-12T; first compound 1 µM) was 0.763, the relative viability (201T; first compound 0.01 µM) was 0.913 and the relative viability (201T; first compound 0.03162 µM) was 0.807. It also gave a relative viability (201T; first compound 0.1 µM) of 0.924, a relative viability (201T; first compound 0.3162 µM) of 0.853 and a relative viability (201T; first compound 1 µM) of 0.719. The relative viability (HCC-366; first compound 0.01 µM) was 0.323, the relative viability (HCC-366; first compound 0.03162 µM) was 0.374 and the relative viability (HCC-366; first compound 0.1 µM) was 0.362. For the same compound, the relative viability (HCC-366; first compound 0.3162 µM) was 0.405, the relative viability (HCC-366; first compound 1 µM) was 0.346 and the relative viability (NCI-H460; first compound 0.01 µM) was 0.462. For the same compound, the relative viability (NCI-H460; first compound 0.03162 µM) was 0.514, the relative viability (NCI-H460; first compound 0.1 µM) was 0.52 and the relative viability (NCI-H460; first compound 0.3162 µM) was 0.57. The relative viability (NCI-H460; first compound 1 µM) was 0.43, the relative viability (NCI-H727; first compound 0.01 µM) was 0.674 and the relative viability (NCI-H727; first compound 0.03162 µM) was 0.504. It also gave a relative viability (NCI-H727; first compound 0.1 µM) of 0.671, a relative viability (NCI-H727; first compound 0.3162 µM) of 0.585 and a relative viability (NCI-H727; first compound 1 µM) of 0.741. The relative viability (EKVX; first compound 0.03162 µM) was 0.873, the relative viability (EKVX; first compound 0.1 µM) was 1.07 and the relative viability (EKVX; first compound 0.3162 µM) was 1.05. It also gave a relative viability (EKVX; first compound 1 µM) of 0.868, a relative viability (SW 900; first compound 0.01 µM) of 0.834 and a relative viability (SW 900; first compound 0.03162 µM) of 0.901. For the same compound, the relative viability (SW 900; first compound 0.1 µM) was 0.839, the relative viability (SW 900; first compound 0.3162 µM) was 0.793 and the relative viability (SW 900; first compound 1 µM) was 0.592. For the same compound, the relative viability (NCI-H3122; first compound 0.01 µM) was 0.642, the relative viability (NCI-H3122; first compound 0.03162 µM) was 0.69 and the relative viability (NCI-H3122; first compound 0.1 µM) was 0.68. It also gave a relative viability (NCI-H3122; first compound 0.3162 µM) of 0.647, a relative viability (NCI-H3122; first compound 1 µM) of 0.71 and a relative viability (COR-L 105; first compound 0.01 µM) of 0.805. The relative viability (COR-L 105; first compound 0.03162 µM) was 0.62, the relative viability (COR-L 105; first compound 0.1 µM) was 0.73 and the relative viability (COR-L 105; first compound 0.3162 µM) was 0.619. The relative viability (COR-L 105; first compound 1 µM) was 0.696, the relative viability (NCI-H661; first compound 0.01 µM) was 0.702 and the relative viability (NCI-H661; first compound 0.03162 µM) was 0.713. It also gave a relative viability (NCI-H661; first compound 0.1 µM) of 0.788, a relative viability (NCI-H661; first compound 0.3162 µM) of 0.822 and a relative viability (NCI-H661; first compound 1 µM) of 0.739. It also gave a relative viability (NCI-H1650; first compound 0.01 µM) of 0.815, a relative viability (NCI-H1650; first compound 0.03162 µM) of 0.819 and a relative viability (NCI-H1650; first compound 0.1 µM) of 0.822. The relative viability (NCI-H1650; first compound 0.3162 µM) was 0.635, the relative viability (NCI-H1650; first compound 1 µM) was 0.676 and the relative viability (NCI-H1437; first compound 0.01 µM) was 0.635. The relative viability (NCI-H1437; first compound 0.03162 µM) was 0.666, the relative viability (NCI-H1437; first compound 0.1 µM) was 0.681 and the relative viability (NCI-H1437; first compound 0.3162 µM) was 0.642. For the same compound, the relative viability (NCI-H1437; first compound 1 µM) was 0.614, the relative viability (NCI-H2170; first compound 0.01 µM) was 0.583 and the relative viability (NCI-H2170; first compound 0.03162 µM) was 0.559. It also gave a relative viability (NCI-H2170; first compound 0.1 µM) of 0.655, a relative viability (NCI-H2170; first compound 0.3162 µM) of 0.676 and a relative viability (NCI-H2170; first compound 1 µM) of 0.732.

From the supplement of paper PMC10307832
